Test results taken from patent US9833423B2 (KOREA RESEARCH INSTITUTE OF CHEMICAL TECHNOLOGY, priority 2011, dated 2017).
Converted amounts (≈) assume the structure as drawn.

Assays:
Entero-virus 70 = test: Cytopathic effect (CPE) inhibition assay; type: cell-based, Enterovirus 70; conditions: Enterovirus D, MRC5, 48 h; Table 3; MRC-5, 37° C., 2 days
Polio 1 = test: microbe, parasite or virus in culture; type: cell-based, poliovirus 1; conditions: Enterovirus C, BGM, read-out: Polio 1 EC50
Coxsackie-virus A24 (HG) = test: Cytopathic effect (CPE) inhibition assay; type: cell-based, Coxsackievirus A24; conditions: Enterovirus C, MRC5, 48 h; Table 3; MRC-5, 37° C., 2 days
Rhino 39 = test: Multicycle CPE reduction assay; type: cell-based, rhinovirus 39; conditions: Enterovirus; 37° C. in HeLa cells
Description: (§1) The test compounds were evaluated for anti-picornavirus activity by a multicycle cytopathic effect (CPE) reduction assay. The antiviral activity was initially determined using an MTS [3-(4,5-dimethylthiazol-2-yl)-5-(3-carboxymethoxyphenyl)-2-(4-sulfophenyl)-2H-tetrazolium]-based CPE reduction assay.
(§2) In this regard, cells grown to confluence in 96-well plates were infected with 100 50% cell culture infective doses (CCID50) of virus. After an adsorption period of 2 hrs at 37° C., virus was removed and serial dilutions of the compounds were added. […] After removal of the medium, 90 μl of a culture medium and 10 μl of MTS-phenazine methosulfate (Promega, Leiden, The Netherlands) were added to each well. After an incubation period of 2 hrs at 37° C., the optical density (OD) of each well was read at 498 nm in a microplate reader.
(§3) CPE values for evaluating antiviral activity were calculated using the following Mathmatic Formula 3: […]
(§4) The 50% effective concentration (EC50) and the 50 cytotoxic concentration (CC50) were defined as the concentrations of compound that offered 50% protection against virus-induced CPE and that killed cells by 50%, respectively, and were calculated using logarithmic interpolation.

Polio 3 = test: microbe, parasite or virus in culture; type: cell-based, poliovirus 3; conditions: Enterovirus C, BGM, read-out: Polio 3 EC50
Rhino 29 = test: Multicycle CPE reduction assay; type: cell-based, rhinovirus 29; conditions: Enterovirus; 37° C. in HeLa cells
Description: as §1, §2, §3, §4

Rhino 86 = test: Multicycle CPE reduction assay; type: cell-based, rhinovirus 86; conditions: Enterovirus; 37° C. in HeLa cells
Description: as §1, §2, §3, §4

Echo 11 = test: Multicycle CPE reduction assay; type: cell-based, echovirus 11; conditions: Enterovirus B; 37° C. in BGM cells
Description: as §1, §2, §3, §4

Polio-virus 3 = test: microbe, parasite or virus in culture; type: cell-based, Poliovirus 3; conditions: Enterovirus C, HeLa37, 48 h, read-out: EC50 Polio-virus 3
Rhino 45 = test: Multicycle CPE reduction assay; type: cell-based, rhinovirus 45; conditions: Enterovirus, HeLa, 37° C. in HeLa cells
Description: as §1, §2, §3, §4

Coxsackie A21 = test: Multicycle CPE reduction assay; type: cell-based, Coxsackievirus A21; conditions: Enterovirus C, A21, MRC5, read-out: Coxsackie A21 EC50
Coxsackie-virus B3 = test: Cytopathic effect (CPE) inhibition assay; type: cell-based, Coxsackievirus B3; conditions: Enterovirus B, HeLa37, 48 h; Table 3; HeLa, 37° C., 2 days; read-out: EC50 Coxsackie-virus B3
Rhino 41 = test: Multicycle CPE reduction assay; type: cell-based, rhinovirus 41; conditions: Enterovirus; 37° C. in HeLa cells
Description: as §1, §2, §3, §4

Rhino 2 = test: Multicycle CPE reduction assay; type: cell-based, rhinovirus 2; conditions: Enterovirus; 37° C. in HeLa cells
Description: as §1, §2, §3, §4

in vitro = conditions: human, CC50
Rhino 89 = test: Multicycle CPE reduction assay; type: cell-based, rhinovirus 89; conditions: Enterovirus; 37° C. in HeLa cells
Description: as §1, §2, §3, §4

Rhino 70 = test: Multicycle CPE reduction assay; type: cell-based, rhinovirus 70; conditions: Enterovirus, HeLa, read-out: Rhino 70 EC50, 37° C. in HeLa cells
Description: as §1, §2, §3, §4

Rhino 14 = test: Multicycle CPE reduction assay; type: cell-based, rhinovirus 14; conditions: Enterovirus; 37° C. in HeLa cells
Description: as §1, §2, §3, §4

Echo 9 = test: Multicycle CPE reduction assay; type: cell-based, echovirus 9; conditions: Enterovirus B, MRC5; 37° C. in MRC-5 cells
Description: as §1, §2, §3, §4

Entero 71 = test: Multicycle CPE reduction assay; type: cell-based, enterovirus 71; conditions: Enterovirus A; 37° C. in RD cells
Description: as §1, §2, §3, §4

[1] = tested on: coxsackieviruses B3, A16, A9, and A21; test: Multicycle CPE reduction assay, text summary; type: cell-based; conditions: Table 5; read-out: EC50 against coxsackieviruses B3, A16, A9, and A21
Description: as §1, §2, §3, §4

Rhino 85 = test: Multicycle CPE reduction assay; type: cell-based, rhinovirus 85; conditions: Enterovirus; 37° C. in HeLa cells
Description: as §1, §2, §3, §4

Coxsackie B3 = test: Multicycle CPE reduction assay; type: cell-based, Coxsackievirus B3; conditions: Enterovirus B, 37° C. in Vero cells
Description: as §1, §2, §3, §4

Rhino 72 = test: Multicycle CPE reduction assay; type: cell-based, rhinovirus 72; conditions: Enterovirus; 37° C. in HeLa cells
Description: as §1, §2, §3, §4

Rhino 15 = test: Multicycle CPE reduction assay; type: cell-based, rhinovirus 15; conditions: Enterovirus; 37° C. in HeLa cells
Description: as §1, §2, §3, §4

Coxsackie-virus B1 = test: Cytopathic effect (CPE) inhibition assay; type: cell-based, Coxsackievirus B1; conditions: Enterovirus B, HeLa37, 48 h; Table 3; HeLa, 37° C., 2 days; read-out: EC50 Coxsackie-virus B1
Rhino 42 = test: Multicycle CPE reduction assay; type: cell-based, rhinovirus 42; conditions: Enterovirus; 37° C. in HeLa cells
Description: as §1, §2, §3, §4

Rhino 63 = test: Multicycle CPE reduction assay; type: cell-based, rhinovirus 63; conditions: Enterovirus; 37° C. in HeLa cells
Description: as §1, §2, §3, §4

Rhino 9 = test: Multicycle CPE reduction assay; type: cell-based, rhinovirus 9; conditions: Enterovirus; 37° C. in HeLa cells
Description: as §1, §2, §3, §4

uninfected cell cultures = test: Cytotoxicity (CC50), MTS-based multicycle CPE reduction assay, Experimental Example 2; type: cell-based
Description: as §1, §2
(§5) CPE values for evaluating cytotoxicity were calculated using the following Mathmatic Formula 4: […]
as §4

[2] = as above; type: cell-based; conditions: Table 5
Description: as §1, §2, §5, §4

Coxsackie A16 = test: Multicycle CPE reduction assay; type: cell-based, Coxsackievirus A16; conditions: Enterovirus A, A16, MRC5; 37° C. in MRC-5 cells
Description: as §1, §2, §3, §4

Rhino 59 = test: Multicycle CPE reduction assay; type: cell-based, rhinovirus 59; conditions: Enterovirus; 37° C. in HeLa cells

| Compound | EC50 (Polio 1) | EC50 (Rhino 39) | EC50 (Rhino 29) | EC50 (Rhino 86) | EC50 (Echo 11) | EC50 (Rhino 45) | EC50 (Coxsackie A21) | EC50 (Rhino 41) | melting point | EC50 (Rhino 2) | EC50 (Rhino 89) | EC50 (Rhino 70) | EC50 (Rhino 14) | EC50 (Echo 9) | EC50 (Entero 71) | EC50 (Rhino 85) | EC50 (Rhino 72) | EC50 (Rhino 15) | EC50 (Rhino 42) | EC50 (Rhino 63) | also measured |
| --- | --- | --- | --- | --- | --- | --- | --- | --- | --- | --- | --- | --- | --- | --- | --- | --- | --- | --- | --- | --- | --- |
| CC(=O)Oc1cc(C(C)C)ccc1C1(OC(C)=O)C(=O)c2ccccc2C1=O [Example 19, Acetic acid 2-(2-acetoxy-4-isopropyl-phenyl)-1,3-dioxo-indan-2-yl ester] | 0.79 ± 0.36 µM | > 50 µM | > 50 µM | 26 ± 18 µM | 0.017 ± 0.0078 µM | 4.6 ± 0.0083 µM | 0.67 ± 0.13 µM | > 50 µM | 136 to 137 °C | > 50 µM | > 50 µM | 2 ± 0.12 µM | 0.45 ± 0.41 µM | 0.017 ± 0.0067 µM | 0.1 ± 0.0018 µM | > 50 µM | 4.6 ± 0.092 µM | > 50 µM | > 50 µM | > 50 µM | EC50 (Entero-virus 70): < 0.01 µg/mL; EC50 (Coxsackie-virus A24 (HG)): < 1 µg/mL; EC50 (Polio 3): < 1 µM; EC50 (Polio-virus 3): < 1 µg/mL; EC50 (Coxsackie-virus B3): < 0.01 µg/mL; CC50 (in vitro): 17.7 µg/mL (≈ 46.5 µM); EC50 [1]: 0.01 µM; EC50 (Coxsackie B3): < 0.01 µM; EC50 (Coxsackie-virus B1): < 0.01 µg/mL; EC50 (Rhino 9): > 50 µM; CC50 (uninfected cell cultures; Table 5, listed as Ex. 19): > 100 µM; CC50 at 3 days [2]: ≥ 100 µM; EC50 (Coxsackie A16): 0.064 ± 0.01 µM |
| CC(=O)Oc1cc(C)ccc1C1(OC(C)=O)C(=O)c2ccccc2C1=O [Example 74, 2-2-Acetoxy-1,3-dioxo-2,3-dihydro-1H-inden-2-yl] | 20 ± 14 µM | > 50 µM | > 50 µM | 26 ± 18 µM | 0.7 ± 0.24 µM | > 50 µM | 26 ± 0.34 µM | > 50 µM | 145 to 147 °C | > 50 µM | > 50 µM | > 50 µM | > 50 µM | 0.61 ± 0.038 µM | 3.3 ± 1.6 µM | > 50 µM | > 50 µM | > 50 µM | > 50 µM | > 50 µM | EC50 (Rhino 59): > 50 µM; EC50 (Rhino 9): > 50 µM; CC50 (uninfected cell cultures; Table 5, listed as Ex. 74): > 100 µM; CC50 at 3 days [2]: ≥ 100 µM; EC50 (Coxsackie A16): 13 ± 0.32 µM |
